Results on two compounds are retold here after publication PMC8655892 (ACS Omega, 2021).

Counter-ions that a name gives are not always drawn.

Data set [1] can be described thus: Plasma protein binding by rapid equilibrium dialysis. The conditions noted are these: mouse. A general note: In equilibrium dialysis only unbound substance equilibrates across the membrane.
Data set [2] is described as follows: Stability of rottlerin in plasma under storage conditions. The conditions noted are these: n=4. The class given is in vitro ADME, mice.
The nature of data set [3]: Metabolic stability in mouse liver microsomes. The data set is classed as in vitro ADME. Conditions: 5 µM, 0.5 mg/mL microsomal protein, NADPH, up to 30 min. In general terms: Microsomes from liver hold many membrane-bound enzymes, among them those of drug oxidation.
A short description of data set [4]: In vivo pharmacokinetics after oral and IV administration. More on the design: species or system Balb/C mice.
Data set [5] is described as follows: Plasma stability in mice plasma. The conditions noted are these: 0–2 h, 10 µM, 37°C.
Data set [6] in a line: Metabolic stability in human liver microsomes. The class given is in vitro ADME. The conditions noted are these: 5 µM, 0.5 mg/mL microsomal protein, NADPH, up to 30 min.
Where [7] appears, read: intravenous, 1 mg/kg, Balb/C mice.
Where [8] appears, read: male, Balb/C, mouse, plasma, iv, 1 mg/kg.
The mark [9] stands for this setting: male, Balb/C, mouse, plasma, po, 4 mg/kg.

One may read the fraction unbound as free concentration divided by total concentration. For the compound `CNC(=C[N+](=O)[O-])NCCSCc1ccc(CN(C)C)o1` [ranitidine, ranitidine hydrochloride], in data set [1], the fraction unbound at 4 h, 5 µM was 0.793.

As usually defined, the AUC(0-inf) is the area under the concentration-time curve extrapolated to infinity. A high value points to more exposure. Broadly, the AUC(0-t) is the area under the concentration-time curve up to a stated or last time point. A high value points to more exposure. The term half-life denotes the time in which the quantity being followed falls by half. Lower therefore signals rapid decline. For orientation: Cmax means the highest concentration seen after dosing. For orientation: Tmax means the time from dosing to the highest level. On to `CC(=O)c1c(O)c(C)c(O)c(Cc2c(O)c3c(c(C(=O)/C=C/c4ccccc4)c2O)OC(C)(C)C=C3)c1O` [Rottlerin], for which the “stability study accuracy (%)” value came out at 92.89% in data set [2] (autosampler: processed samples, 4 °C, 24 h, HQC 800 ng/mL); 90.04% in data set [2] (autosampler: processed samples, 4 °C, 24 h, LQC 5.7 ng/mL); 91.69% in data set [2] (freeze–thaw: three cycles, −20 °C / room temperature, HQC 800 ng/mL); 88.60% in data set [2] (freeze–thaw: three cycles, −20 °C / room temperature, LQC 5.7 ng/mL). In data set [3], the “remained intact in MLMs” value is listed as over 75%. In addition, the Cl in data set [4] (setting [7]) is 5.83 ± 0.5 mL/min/kg; in data set [4] (intravenous, 1 mg/kg, Balb/C mice, listed as rottlerin), at most 17 mL/min/kg; in data set [4] (oral, 4 mg/kg, Balb/C mice), 16.8 ± 1.3 mL/min/kg; in data set [4] (oral, 4 mg/kg, Balb/C mice, listed as rottlerin), at most 17 mL/min/kg. Besides, the T1/2 in data set [4] (setting [7]) was determined as 2.9 ± 0.8 h; in data set [4] (oral, 4 mg/kg, Balb/C mice) it was 2.7 ± 0.4 h. Moreover, the Vd in data set [4] (setting [7]) is 1.4 ± 0.4 L/kg; in data set [4] (oral, 4 mg/kg, Balb/C mice), 3.8 ± 0.6 L/kg. Also, the “exposure (plasma levels)” value in data set [4] (iv, 1 mg/kg, Balb/C mice) was about 3000 ng·h/mL; in data set [4] (oral, 4 mg/kg, Balb/C mice), “around 4 μg h/mL”. The AUC(0-inf) in data set [4] (setting [8]) turned out to be 2920 ± 292 ng·h/mL; in data set [4] (setting [9]) it was 4090 ± 348 ng·h/mL. Further, the AUC(0-t) was 2850 ± 311 ng·h/mL in data set [4] (setting [8]) and 4050 ± 360 ng·h/mL in data set [4] (setting [9]). In data set [4] (setting [8]), the C0 was 2110 ± 359 ng/mL. Besides, the half-life was over 2 h in data set [4] (male, Balb/C, mouse, plasma, iv, 1 mg/kg, T1/2, intravenous, Balb/C mice) and over 2 h in data set [4] (male, Balb/C, mouse, plasma, po, 4 mg/kg, T1/2, oral, Balb/C mice). Also, the Cmax in data set [4] (setting [9]) was 660 ± 60 ng/mL. Moreover, the Tmax in data set [4] (male, Balb/C, mouse, plasma, po, 4 mg/kg, Tmax, Balb/C mice) was about 2.4 h. Besides, the oral bioavailability in data set [4] (oral 4 mg/kg vs IV 1 mg/kg, Balb/C mice) is reported as 35–36%. Besides, the “degradation in mice plasma” value in data set [5] is under 5%. The “remained intact in HLMs” value in data set [6] is reported as “over 91%”.
